Reference: ChEMBL document CHEMBL4402545, “Subtype Selective γ-Aminobutyric Acid Type A Receptor (GABAAR) Modulators Acting at the Benzodiazepine Binding Site: An Update” (J Med Chem, 2020)

Columns and labels:
[1] = target: T1, Gamma-aminobutyric acid receptor subunit alpha-2 (Homo sapiens) (UniProt P47869); experiment: Binding affinity to GABA-A alpha2 (unknown origin) assessed as increase in induced current relative to control
T1 sequence (whole entry): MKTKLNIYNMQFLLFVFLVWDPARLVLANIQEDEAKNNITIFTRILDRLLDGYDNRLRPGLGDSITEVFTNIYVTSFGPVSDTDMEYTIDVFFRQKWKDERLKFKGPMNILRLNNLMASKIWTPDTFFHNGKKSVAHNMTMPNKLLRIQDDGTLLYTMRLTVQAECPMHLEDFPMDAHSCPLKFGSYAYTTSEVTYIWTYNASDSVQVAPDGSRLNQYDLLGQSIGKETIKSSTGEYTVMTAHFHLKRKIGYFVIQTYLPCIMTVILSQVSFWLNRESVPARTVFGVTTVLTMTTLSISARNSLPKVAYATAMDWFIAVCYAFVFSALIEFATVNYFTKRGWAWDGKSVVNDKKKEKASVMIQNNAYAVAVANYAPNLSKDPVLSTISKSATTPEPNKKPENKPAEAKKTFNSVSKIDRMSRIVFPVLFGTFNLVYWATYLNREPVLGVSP

[2] = target: T2, Gamma-aminobutyric acid receptor subunit alpha-3 (Homo sapiens) (UniProt P34903); experiment: Binding affinity to GABA-A alpha3 (unknown origin) assessed as increase in induced current relative to control
T2 sequence (whole entry): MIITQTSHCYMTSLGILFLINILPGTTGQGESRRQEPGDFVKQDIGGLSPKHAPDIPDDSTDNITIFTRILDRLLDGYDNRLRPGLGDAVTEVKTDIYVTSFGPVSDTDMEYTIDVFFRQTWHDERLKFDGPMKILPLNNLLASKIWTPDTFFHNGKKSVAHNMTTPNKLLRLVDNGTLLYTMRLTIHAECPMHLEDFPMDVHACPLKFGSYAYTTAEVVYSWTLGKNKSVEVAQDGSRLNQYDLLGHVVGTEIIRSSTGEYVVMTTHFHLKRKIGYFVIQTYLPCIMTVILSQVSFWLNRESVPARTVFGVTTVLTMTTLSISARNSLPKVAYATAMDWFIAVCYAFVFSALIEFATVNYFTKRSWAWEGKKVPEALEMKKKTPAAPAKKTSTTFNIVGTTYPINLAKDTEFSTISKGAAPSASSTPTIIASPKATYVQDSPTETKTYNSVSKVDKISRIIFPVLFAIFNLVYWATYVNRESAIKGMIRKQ

[3] = target: T3, Gamma-aminobutyric acid receptor subunit alpha-1 (Homo sapiens) (UniProt P14867); experiment: Binding affinity to GABA-A alpha1 (unknown origin) assessed as increase in induced current relative to control
T3 sequence (whole entry): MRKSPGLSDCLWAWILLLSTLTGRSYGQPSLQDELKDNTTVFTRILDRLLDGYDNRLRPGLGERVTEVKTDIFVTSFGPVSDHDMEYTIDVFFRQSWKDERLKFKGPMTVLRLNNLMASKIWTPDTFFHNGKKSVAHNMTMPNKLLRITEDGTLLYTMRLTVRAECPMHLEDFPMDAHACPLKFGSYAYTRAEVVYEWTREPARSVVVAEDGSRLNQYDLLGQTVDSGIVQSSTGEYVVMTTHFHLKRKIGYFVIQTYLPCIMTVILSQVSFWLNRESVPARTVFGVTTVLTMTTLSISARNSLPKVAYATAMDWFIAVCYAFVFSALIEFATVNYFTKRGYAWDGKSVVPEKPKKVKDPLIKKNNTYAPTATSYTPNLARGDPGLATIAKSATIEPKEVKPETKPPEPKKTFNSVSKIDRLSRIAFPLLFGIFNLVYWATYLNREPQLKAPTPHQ

[4] = target: T4, Gamma-aminobutyric acid receptor subunit alpha-5 (Homo sapiens) (UniProt P31644); experiment: Binding affinity to GABA-A alpha5 (unknown origin) assessed as increase in induced current relative to control
T4 sequence (whole entry): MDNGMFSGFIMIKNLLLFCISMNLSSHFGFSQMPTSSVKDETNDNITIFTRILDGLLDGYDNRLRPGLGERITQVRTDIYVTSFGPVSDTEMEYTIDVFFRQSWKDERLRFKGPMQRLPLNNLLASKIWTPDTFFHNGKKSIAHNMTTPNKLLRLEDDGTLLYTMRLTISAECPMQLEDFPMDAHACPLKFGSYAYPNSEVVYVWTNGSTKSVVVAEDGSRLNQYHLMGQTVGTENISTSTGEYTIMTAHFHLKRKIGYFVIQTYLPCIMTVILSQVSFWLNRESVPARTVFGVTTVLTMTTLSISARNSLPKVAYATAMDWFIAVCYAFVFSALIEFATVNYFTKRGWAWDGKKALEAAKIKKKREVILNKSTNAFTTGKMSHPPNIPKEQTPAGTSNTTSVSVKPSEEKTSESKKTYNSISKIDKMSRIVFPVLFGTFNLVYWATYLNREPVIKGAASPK

[5] = organism: Homo sapiens; experiment: Selectivity ratio of Ki for binding affinity to GABAA alpha1beta3gamma2 (unknown origin) to Ki for binding affinity to GABAA alpha5beta3gamma2 (unknown origin)
[6] = target: T5, Gamma-aminobutyric acid receptor subunit alpha-2 (Homo sapiens, UniProt P47869); experiment: Binding affinity to GABA-A alpha2 (unknown origin)
T5 sequence (P47869 whole entry): T1 sequence (whole entry)

[7] = organism: Homo sapiens; experiment: Selectivity ratio of Ki for binding affinity to GABAA alpha3beta3gamma2 (unknown origin) to Ki for binding affinity to GABAA alpha5beta3gamma2 (unknown origin)
[8] = target: T6, Gamma-aminobutyric acid receptor subunit alpha-5 (Homo sapiens, UniProt P31644); experiment: Binding affinity to GABA-A alpha5 (unknown origin)
T6 sequence (P31644 whole entry): T4 sequence (whole entry)

[9] = target: T7, Gamma-aminobutyric acid receptor subunit alpha-3 (Homo sapiens, UniProt P34903); experiment: Binding affinity to GABA-A alpha3 (unknown origin)
T7 sequence (P34903 whole entry): T2 sequence (whole entry)

[10] = target: T8, Gamma-aminobutyric acid receptor subunit alpha-1 (Homo sapiens, UniProt P14867); experiment: Binding affinity to GABA-A alpha1 (unknown origin)
T8 sequence (P14867 whole entry): T3 sequence (whole entry)

[11] = organism: Homo sapiens; experiment: Selectivity ratio of Ki for binding affinity to GABAA alpha2beta3gamma2 (unknown origin) to Ki for binding affinity to GABAA alpha5beta3gamma2 (unknown origin)
[12] = target: GABA-A receptor; alpha-5/beta-3/gamma-2 (Homo sapiens) (UniProt P18507+P28472+P31644); experiment: Negative allosteric modulation of GABAA alpha5beta3gamma2 (unknown origin) expressed in Xenopus laevis oocytes assessed as inhibition of GABA-induced current response at -60 mV holding potential by two electrode voltage clamp method relative to control; format: cell-based; set-up: scale not given: the % may be the effect or the level left
[13] = target: T1, Gamma-aminobutyric acid receptor subunit alpha-2 (Homo sapiens); experiment: Binding affinity to GABA-A alpha2 (unknown origin) assessed as reduction in DMCM induced current relative to control
[14] = target: T2, Gamma-aminobutyric acid receptor subunit alpha-3 (Homo sapiens); experiment: Binding affinity to GABA-A alpha3 (unknown origin) assessed as reduction in DMCM induced current relative to control
[15] = target: T4, Gamma-aminobutyric acid receptor subunit alpha-5 (Homo sapiens); experiment: Binding affinity to GABA-A alpha5 (unknown origin) assessed as reduction in DMCM induced current relative to control
[16] = target: T3, Gamma-aminobutyric acid receptor subunit alpha-1 (Homo sapiens); experiment: Negative allosteric modulation of GABA-A alpha1 (unknown origin) assessed as reduction in DMCM induced current relative to control

CC(C)(O)c1ccc2c(c1)ncn2-c1cccc(-c2cc(C#N)ccc2Cl)n1
fold change (FC) [1]: 0.27
fold change (FC) [2]: 0.47
fold change (FC) [3]: -0.1
fold change (FC) [4]: 0.05

C#Cc1ccc2c(c1)C(c1ccccc1F)=N[C@H](C)c1c(C(=O)NC3CC3)ncn1-2
Ratio Ki [5]: 6 to 15
Ki [6]: 789 nM
Ratio Ki [7]: 6 to 15
Ki [8]: 79 nM
fold change (FC) [3]: 1.22
Ki [9]: 480 nM
Ki [10]: 542 nM
Ratio Ki [11]: 6 to 15
fold change (FC) [4]: 1.23

CCCNC(=O)c1nnc2c(-c3cc(OC)ccc3OC)cccc2c1N [AZD6280]
Ki [8]: 1680 nM
Ki [9]: 3.1 nM
Ki [10]: 0.5 nM

CCOC(=O)c1ncn2c1[C@@H]1CCCN1C(=O)c1cc(OC)ccc1-2
Ratio Ki [5]: 50 to 100
Ki [6]: 17 to 360 nM
Ratio Ki [7]: 50 to 100
Ki [9]: 17 to 360 nM
Ki [10]: 17 to 360 nM
Ratio Ki [11]: 50 to 100

C#Cc1ccc2c(c1)C(c1ccccn1)=NCc1c(C(=O)OCC)ncn1-2
fold change (FC) [1]: 0.52
fold change (FC) [2]: 0.36
fold change (FC) [3]: 0.27
fold change (FC) [4]: 0.23

C#Cc1ccc2c(c1)C(c1ccccc1F)=N[C@H](C)c1c(C(=O)OCC)ncn1-2
fold change (FC) [1]: 0.19
fold change (FC) [2]: 0.18
fold change (FC) [3]: 0.25
fold change (FC) [4]: 1.19

c1ccc(-c2nnc3c4c(c(OCc5ccccn5)nn23)C2CCC4CC2)cc1
Ki [6]: 26 nM
Ki [9]: 12 nM
Ki [10]: 71 nM

C#Cc1ccc2c(c1)C(=O)N(C)Cc1c(C(=O)OCC)ncn1-2
Activity [12]: 36%

C#Cc1ccc2c(c1)C(c1ccccc1F)=N[C@H](C)c1c(C(=O)N(C)C)ncn1-2
Ratio Ki [5]: 6 to 15
Ki [6]: 30000 nM
Ratio Ki [7]: 6 to 15
Ki [8]: 5000 nM
fold change (FC) [3]: 0.65
Ki [9]: 63000 nM
Ki [10]: 55000 nM
Ratio Ki [11]: 6 to 15
fold change (FC) [4]: 1.46

FC(F)c1ncn2c1Cn1ncnc1-c1cc(Br)ccc1-2
Efficacy [13]: -4%
Ki [6]: 185 nM
Ki [8]: 4.6 nM
Efficacy [14]: 2%
Efficacy [15]: -35%
Ki [9]: 80 nM
Efficacy [16]: -3%
Ki [10]: 174 nM

Clc1ccc2c(c1)-c1ncnn1Cc1c(Cl)ncn1-2
Efficacy [13]: -9%
Ki [6]: 24 nM
Ki [8]: 2 nM
Efficacy [14]: -11%
Efficacy [15]: -40%
Ki [9]: 14 nM
Efficacy [16]: -3%
Ki [10]: 15 nM

C#Cc1ccc2c(c1)C(c1ccccc1F)=N[C@H](C)c1c(C(=O)NC)ncn1-2
Ki [6]: 360 nM
fold change (FC) [1]: 0.5
Ki [8]: 55 nM
fold change (FC) [2]: 0.2
fold change (FC) [3]: 0.11
Ki [9]: 660 nM
Ki [10]: 850 nM
fold change (FC) [4]: 2.48

COCc1ncn2c1CN(C)C(=O)c1cc(Cl)ccc1-2
Efficacy [13]: 15%
Ratio Ki [5]: 30 to 60
Ki [6]: 180 nM
Ratio Ki [7]: 30 to 60
Ki [8]: 6 nM
Efficacy [14]: 45%
Efficacy [15]: -20%
Ki [9]: 328 nM
Activity [12]: 17%
Efficacy [16]: 20%
Ki [10]: 362 nM
Ratio Ki [11]: 30 to 60

Cc1onc(-c2ccc(F)cc2)c1COc1ccc(C(=O)N2CCS(=O)(=O)CC2)cn1 [BASMISANIL]
Efficacy [13]: -6%
Ki [6]: 502 nM
Ki [8]: 4.7 nM
Efficacy [14]: -2%
Efficacy [15]: -39%
Ki [9]: 489 nM
Efficacy [16]: -4%
Ki [10]: 985 nM

C#Cc1ccc2c(c1)C(c1ccccc1F)=N[C@@H](C)c1c(C(=O)OCC)ncn1-2
fold change (FC) [1]: 0.57
fold change (FC) [2]: 0.31
fold change (FC) [3]: 0.3
fold change (FC) [4]: 1.19

C#Cc1ccc2c(c1)C(c1ccccn1)=NCc1c(C(=O)OC)ncn1-2
Ki [6]: 1000 nM
Activity [1]: 140%
Activity [2]: 129%
Activity [3]: 25%
Ki [9]: 1000 nM
Activity [4]: 11%

C#Cc1ccc2c(c1)C(c1ccccn1)=NCc1c(-c3cnco3)ncn1-2
fold change (FC) [1]: 0.66
fold change (FC) [2]: 0.77
fold change (FC) [3]: 0.35
